# Reference: patent US6605626B2, “Antithrombotic agents” (Eli Lilly and Company, priority 1997, dated 2003)
row,melting point [°C],SMILES
1,205 to 207.5,"CCNc1ccc(C(=O)Nc2ccc(OC)cc2)c(NC(=O)c2ccc(C(C)(C)C)cc2)c1 [Example 60a, 2-(4-tert-Butylbenzoylamino)-4-ethylamino-N-(4-methoxyphenyl)benzamide]"
2,208 to 210,"COc1ccc(NC(=O)c2ccccc2NC(=O)c2ccc(C(C)(C)C)cc2)cc1 [Example 89, 2-(4-tert-Butylbenzoylamino)-N-(4-methoxyphenyl)benzamide]"
3,208 to 209,"COc1ccc(C(=O)Nc2cccc(O)c2NC(=O)c2ccc(OC)cc2)cc1 [Example 158, 2,3-bis[(4-Methoxybenzoyl)amino]phenol]"
4,238 to 239,"COc1ccc(C(=O)Nc2ccc(OC)cc2NC(=O)c2ccc(OC)cc2)cc1 [Example 155, 4-Methoxy-N^1,N^2-bis(4-methoxybenzoyl)-1,2-benzenediamine]"
